Counter-ions that a name gives are not always drawn.
What was measured:
[1] = tested on: PC12 cells; settings: treatment with the kinase inhibitor; cited from earlier work
[2] = water solubility; format: physicochemical; settings: at 25° C.
Protocol: (§1) Instead, the melting of Form I is observed to recrystallize to another, metastable form having a melting point of about 172.5° C.

[3] = storage stability of the crystalline form; format: physicochemical; settings: stored at 40° C. and 75% relative humidity for up to four weeks
Protocol: as §1

COC(=O)[C@@]1(O)C[C@H]2O[C@]1(C)n1c3ccccc3c3c4c(c5c6ccccc6n2c5c31)C(=O)NC4 [Compound K252a, K252a]
Neuregulin-1 induced neurite outgrowth [1]: potentiation of Neuregulin-1 induced neurite outgrowth

CC(C)C[C@](C)(N)COc1ccc(-c2ccnc(C(F)F)c2)nc1C(F)F [Compound S, (S)-1-((2′,6-bis(difluoromethyl)-[2,4′-bipyridin]-5-yl)oxy)-2,4-dimethylpentan-2-amine hydrochloride]
water solubility ([2]; listed as hydrochloride salt of Compound J, hydrochloride): 2.9 mg/mL

CC(C)C[C@](C)(N)COc1ccc(-c2ccnc(C(F)F)c2)nc1C(F)F [Compound K, ((S)-1-((2′,6-bis(difluoromethyl)-[2,4′-bipyridin]-5-yl)oxy)-2,4-dimethylpentan-2-aminiumdihydrogen phosphate]
stability on storage (form, morphology, purity) [3]: neither the form itself, its morphology, nor its purity changed | water solubility ([2]; listed as Form I): 26.8 mg/mL
